Reference: patent publication US20120277239A1, “Compositions and Methods for Improving Night Vision” (ALPHA SYNERGY DEVELOPMENT INC., priority 2011, published 2012)
Structures can show the parent of a compound that is named as a salt. Where two headings read alike, the source gives them in different places.

What was measured:
intraocular pressure = settings: bunazosin at 0.3%; measured 6 hours post instillation; cited from earlier work
conjunctival hyperemia = settings: bunazosin at 0.3%; cited from earlier work
pupil = settings: bunazosin at 0.3%; cited from earlier work
scotopic pupil = settings: brimonidine […]; for % reduction of scotopic pupil size (left eye) / Scotopic pupil size (mm) (left eye): contralateral control left eye, pH 7.0 to right eye; for % reduction of scotopic pupil size (right eye) / Scotopic pupil size (mm) (right eye): treated right eye, pH 7.0
Description: (§1) All pupil measurements were made using Marco video monitor pupillometry in a darkened room, which was captured via digital image capture and monitor adjustable caliper measurement. Once the dark adapted pupil was digitially captured, the instrument allows superiposition of a caliper with 0.1 mm increments to measure the pupil diameter.

eye redness = settings: brimonidine […]; for Redness (from 0 to 4) (right eye): pH 7.0 to right eye
Description: as §1

surface vasoconstriction = settings: brimonidine 0.01% to 0.05% weight by volume, particularly 0.01% to […]
pupil size = settings: for Onset of pupil reduction / Pupil reduction at 1 hour (mm) / Range (pupil size) at 3 hours: brimonidine […], pH 7.0 q am
Experimental: The pupil size was measured at the baseline and then 10 minutes and 3 hours after instillation for 3 consecutive weeks.

pupil size in dim light = settings: cited from earlier work
[1] = cited from earlier work; for side effects upon application: in vivo; for floppy iris syndrome: systemic or topical α1-adrenoceptor antagonist (Oshika et al)
[2] = pH 7.1; with added constituents of a balanced salt solution
Description: The terms “salt” and “constituent of a balanced salt solution” are used interchangeably for the purposes of the present invention. They are a subset of agents that improve solubility of the inventive formulations.

[3] = Day 2.1 (follows 20 days of consecutive use)

For `CCCC(=O)N1CCCN(c2nc(N)c3cc(OC)c(OC)cc3n2)CC1` [Bunazosin], the intraocular pressure reduction (intraocular pressure) is given as “about 20%”, the “duration before return to baseline” value (conjunctival hyperemia) is given as “about 24 hours” and the “mean conjunctival hyperemia score” value (conjunctival hyperemia) is given as 1.5 /4. For the same compound, the pupil reduction (pupil) was “about 1.0 mm”.

In the case of `Brc1c(NC2=NCCN2)ccc2nccnc12.O=C(O)C(O)C(O)C(=O)O` [brimonidine, 5-bromo-6-(2-imidazolin-2-ylamino)quinoxaline D-tartrate], the “pupil modulation in contralateral control (left eye)” value (scotopic pupil; pH 7.0 applied to right eye) is reported as “delayed but significant pupil modulation”, the “% reduction of scotopic pupil size (left eye)” value (shortened to “% reduction … (left eye)”) (scotopic pupil; time 0 hr (baseline)) is reported as 0% and the “Scotopic pupil size (mm) (left eye)” value (scotopic pupil; time 0 hr (baseline)) is reported as 5 mm. The “% reduction … (left eye)” value (scotopic pupil; time 0.05 hr) was 0%, the “Scotopic pupil size (mm) (left eye)” value (scotopic pupil; time 0.05 hr) was 5 mm and the “% reduction … (left eye)” value (scotopic pupil; time 0.5 hr) was 0%. The “Scotopic pupil size (mm) (left eye)” value (scotopic pupil; time 0.5 hr) was 5 mm, the “% reduction … (left eye)” value (scotopic pupil; time 1.25 hr) was 0% and the “Scotopic pupil size (mm) (left eye)” value (scotopic pupil; time 1.25 hr) was 5 mm. The “% reduction … (left eye)” value (scotopic pupil; time 2.25 hr) was 20%, the “Scotopic pupil size (mm) (left eye)” value (scotopic pupil; time 2.25 hr) was 4 mm and the “% reduction … (left eye)” value (scotopic pupil; time 3.25 hr) was 20%. The “Scotopic pupil size (mm) (left eye)” value (scotopic pupil; time 3.25 hr) was 4 mm, the “% reduction of scotopic pupil size (right eye)” value (from here on “% reduction … (right eye)”) (scotopic pupil; time 0 hr (baseline)) was 0% and the “Scotopic pupil size (mm) (right eye)” value (scotopic pupil; time 0 hr (baseline)) was 5 mm. For the same compound, the “% reduction … (right eye)” value (scotopic pupil; time 0.05 hr) was 0%, the “Scotopic pupil size (mm) (right eye)” value (scotopic pupil; time 0.05 hr) was 5 mm and the “% reduction … (right eye)” value (scotopic pupil; time 0.5 hr) was 10%. For the same compound, the “Scotopic pupil size (mm) (right eye)” value (scotopic pupil; time 0.5 hr) was 4.5 mm, the “% reduction … (right eye)” value (scotopic pupil; time 1.25 hr) was 20% and the “Scotopic pupil size (mm) (right eye)” value (scotopic pupil; time 1.25 hr) was 4 mm. For the same compound, the “% reduction … (right eye)” value (scotopic pupil; time 2.25 hr) was 30%, the “Scotopic pupil size (mm) (right eye)” value (scotopic pupil; time 2.25 hr) was 3.5 mm and the “% reduction … (right eye)” value (scotopic pupil; time 3.25 hr) was 30%. For the same compound, the “Scotopic pupil size (mm) (right eye)” value (scotopic pupil; time 3.25 hr) was 3.5 mm, the “eye whitening in the right eye” value (eye redness; pH 7.0, at 0.5 hr, 1.25 hr, 2.25 hr and 3.25 hr) was “significant eye whitening” and the “Redness (from 0 to 4) (right eye)” value (eye redness; time 0 hr (baseline)) was 2. The “Redness (from 0 to 4) (right eye)” value (eye redness; time 0.05 hr) was 0, the “Redness (from 0 to 4) (right eye)” value (eye redness; time 0.5 hr) was 0 and the “Redness (from 0 to 4) (right eye)” value (eye redness; time 1.25 hr) was 0. For the same compound, the “Redness (from 0 to 4) (right eye)” value (eye redness; time 2.25 hr) was 0, the “Redness (from 0 to 4) (right eye)” value (eye redness; time 3.25 hr) was 0 and the “surface vasoconstriction, redness and whiteness versus equivalent concentration of oxymetazoline” value (surface vasoconstriction) was “improved surface vasoconstriction, reduced surface redness, and improved whiter appearance”. The Baseline pupil size (pupil size; baseline before instillation, dark conditions) was 6.2 mm, the “Onset of pupil reduction” value (pupil size; one eye, Day 1-20 Avg) was 10 to 15 min and the “Pupil reduction at 1 hour (mm)” value (pupil size; Day 1-20 Avg) was ≥ 1 mm. For the same compound, the “Range (pupil size) at 3 hours” value (pupil size; Day 1-20 Avg) was 3.8-4.2, the “Onset of pupil reduction” value (pupil size; [3]) was 10 to 15 min and the “Pupil reduction at 1 hour (mm)” value (pupil size; [3]) was ≥ 1 mm. The “Range (pupil size) at 3 hours” value (pupil size; [3]) was 3.8-4.2, the “pupil effect in one individual” value (pupil dilation; brimonidine […], pH 6.5, one individual who later responded at pH 7.1) was “no pupil effect” and the “treated patients with pupil modulation” value (pupil dilation; brimonidine […], pH 7.1, one eye, 4 individuals) was 100%. For the same compound, the “individuals who experienced reduced dilation” value (pupil dilation; topical brimonidine […], pH 6.5, one eye, 13 individuals, modest indoor lighting) was 2 individuals, the “treated patients with reduced dilation” value (pupil dilation; topical brimonidine […], pH 6.5, 13 individuals) was 15.4% and the “individuals with pupil modulation” value (pupil dilation; topical brimonidine […], pH 7.1) was 4 out of 4.

For `Cc1ccccc1N1CCN(CCc2nnc3n2CCCC3)CC1` [dapiprazole, 5,6,7,8-tetrahydro-3-[2-(4-o,tolyl-1-piperazinypethyl]-8-triazolo[4,3-a]pyridine hydrochloride], the “effect on pupil size in dim light” value (pupil size in dim light; clinical application) is given as “very little effect on pupil size in dim light” and the “side effects upon application” value [1] is given as “redness and frequently chemosis”.

In the case of `Cc1cccc([C@H](C)c2cnc[nH]2)c1C` [dexmedetomidine], the solubility [2] is reported as ≥ 0.1%.

For `CC[C@@H]1C(=O)OC[C@@H]1Cc1cncn1C` [pilocarpine], the duration of effect (pupil size in dim light; in vivo) is listed as “lasts only a few hours”, the “pupil in dim light” value (pupil size in dim light; when first applied) is listed as “below 3 mm” and the “side effects upon application” value [1] is listed as “brow ache, ciliary muscle contraction and pseudo myopia (muscle spasm of accommodation), and redness”.

In the case of `C[C@H](Cc1cc2c(c(C(N)=O)c1)N(CCCO)CC2)NCCOc1ccccc1OCC(F)(F)F` [sidolosin], the floppy iris syndrome [1] is listed as “floppy iris syndrome”.

In the case of `CCOc1ccccc1OCCN[C@H](C)Cc1ccc(OC)c(S(N)(=O)=O)c1` [tamsulosin], the floppy iris syndrome [1] is given as “floppy iris syndrome”.
